Reference: ChEMBL document CHEMBL1201862, “PubChem BioAssay data set” (2004)
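Compound exposure: 48 hours, 5 concentrations, 96-well plates. GI50 marks 50% less growth.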 Active and inactive are the calls of the source. No stated cut-off is given here; in the data, active = GI50 up to about 1.1 µM and inactive = higher.

Columns and labels:
Experiment in all cases: growth of human tumour cells (NCI), 48 h
[1] = system: T47D
[2] = system: M19-MEL
[3] = system: DMS-273
[4] = system: XF498
[5] = system: LXFL 529
[6] = system: SNB-78
[7] = system: DMS-114
[8] = system: HOP-18

Cc1cc(-c2cc(C(C)(C)C)c(O)c(C(C)(C)C)c2)c(C)cc1-c1cc(C(C)(C)C)c(O)c(C(C)(C)C)c1
GI50 [1]: > 100 µM (inactive)

CC(=O)n1nc(-c2ccc3ccccc3c2)nc1C
GI50 [1]: 52.4 µM (inactive)

COC1=CC(=O)c2c(cc(COP(=O)(OCC3OC(n4cc(F)c(=O)[nH]c4=O)CC3O)N(C)CCCCCl)n2C)C1=O (centres undefined)
GI50 [1]: 0.991 µM (active)

Cc1cc(=O)oc2cc(OC(=O)N(C)C)c(Cl)cc12
GI50 [1]: 85.9 µM (inactive)

COc1cc(C2c3cc4c(c(O)c3C(=O)C3CCC(=O)N32)OCO4)cc(OC)c1OC (centres undefined)
GI50 [1]: 99.5 µM (inactive)

CCNC(=S)NNC(=O)c1csc(NC(=S)NC2CCCCC2)n1
GI50 [1]: 11.7 µM (inactive)

COC(=O)[C@@H]1c2[nH]c3ccccc3c2C[C@@H]2c3ccccc3NC(=O)[C@@H]21
GI50 [2]: > 89.3 µM (inactive) | GI50 [3]: > 57.5 µM (inactive) | GI50 [4]: > 100 µM (inactive) | GI50 [5]: > 65.2 µM (inactive) | GI50 [6]: > 76.4 µM (inactive) | GI50 [7]: > 100 µM (inactive)

Cc1ccc(Sc2ccccc2C23OC(C)(C4C(=O)N(c5ccccc5)C(=O)C42)N(C)C3=O)cc1 (centres undefined)
GI50 [1]: > 100 µM (inactive)

O=c1onc2n1-c1cc(Cl)ccc1C(=S)N1CSCC21 (centres undefined)
GI50 [1]: > 100 µM (inactive)

CCOC(=O)c1c(N2CCCC2)nsc1Nc1ccccc1
GI50 [1]: > 100 µM (inactive)

CC1=NN(c2nc(N)nc(/C(C#N)=C\c3ccc(-c4ccc([N+](=O)[O-])cc4)o3)n2)C(C)(C)C1
GI50 [1]: > 100 µM (inactive)

C=C1CC(c2ccc(OCCCN3C(=O)c4ccccc4C3=O)c(OC)c2)OC1=O (centres undefined)
GI50 [1]: 2.56 µM (inactive)

CO[C@H]1O[C@@H]2CO[C@@H](c3ccccc3)O[C@H]2C[C@]12CCC/C=C\CO2
GI50 [1]: 18 µM (inactive)

C/N=N/N(C)C(=O)NC
GI50 [2]: > 100 µM (inactive) | GI50 [5]: > 100 µM (inactive) | GI50 [8]: > 100 µM (inactive) | GI50 [7]: > 100 µM (inactive)

C[C@]12CC[C@H](O)CC1=CC[C@@H]1[C@@H]2CC[C@]2(C)C(=O)/C(=C/c3ccc([N+](=O)[O-])cc3)C[C@@H]12
GI50 [1]: 14.3 µM (inactive)

CC(NC(=O)/C(C#N)=C/c1ccc2[nH]ccc2c1)c1ccccc1 (centres undefined)
GI50 [3]: 23.5 µM (inactive) | GI50 [5]: 19.5 µM (inactive) | GI50 [6]: 38.7 µM (inactive) | GI50 [1]: 20.3 µM (inactive) | GI50 [8]: 24.3 µM (inactive) | GI50 [7]: 22.3 µM (inactive)

Cc1cc(N(CCC#N)CCC#N)ccc1/C=C(\NC(=O)/C=C/c1ccccc1)NC(=O)Nc1ccc(Cl)cc1
GI50 [2]: 93.1 µM (inactive) | GI50 [3]: 5.04 µM (inactive) | GI50 [4]: > 100 µM (inactive) | GI50 [5]: 0.652 µM (active) | GI50 [6]: > 10 µM (inactive) | GI50 [7]: 17.3 µM (inactive)

C[n+]1c(-c2ccc(/C=N\N3CCN(/N=C/c4ccc(-c5cn6ccccc6[n+]5C)cc4)CC3)cc2)cn2ccccc21
GI50 [1]: 34.9 µM (inactive)

Clc1ccc(C2Nc3ccccc3C3=NCCN32)cc1 (centres undefined)
GI50 [1]: 15.6 µM (inactive)

S=c1sc2ccccc2n1CN1CCN(Cc2ccccc2)CC1
GI50 [1]: > 100 µM (inactive)

CC(=O)NC1C(OCc2ccccc2)OC(CO)C(O)C1OC(C)C(=O)NC(C(=O)NC(CCC(=O)NCCCNc1ccc([N+](=O)[O-])c2[nH]c3ccccc3c(=O)c12)C(N)=O)C(C)C (centres undefined)
GI50 [1]: > 100 µM (inactive)

COc1ccc(C(=O)N/N=C/c2c(C)n(C)n(-c3ccccc3)c2=O)cc1
GI50 [2]: > 100 µM (inactive) | GI50 [3]: > 100 µM (inactive) | GI50 [4]: > 100 µM (inactive) | GI50 [5]: > 100 µM (inactive) | GI50 [6]: > 100 µM (inactive) | GI50 [8]: > 100 µM (inactive) | GI50 [7]: > 100 µM (inactive)

Nc1nc(F)nc2c1ncn2C1OC(CO)C(O)C1O (centres undefined)
GI50 [1]: > 70 µM (inactive)

Cc1cc2c(=O)cc(-c3ccc(Cl)c(Cl)c3)oc2c(C(=O)O)c1C
GI50 [2]: > 100 µM (inactive) | GI50 [4]: > 100 µM (inactive) | GI50 [5]: > 100 µM (inactive) | GI50 [6]: > 100 µM (inactive) | GI50 [8]: > 100 µM (inactive) | GI50 [7]: > 100 µM (inactive)

CCn1cc2c(=O)n3ncn(-c4ccc(Br)cc4)c3nc2n1
GI50 [1]: > 100 µM (inactive)

C/C(=N\O)c1ccc2ccc3ccccc3c2c1
GI50 [1]: 56.6 µM (inactive)

C=Nc1ccc([N+](=O)[O-])cc1
GI50 [2]: > 100 µM (inactive) | GI50 [3]: > 100 µM (inactive) | GI50 [4]: > 100 µM (inactive) | GI50 [5]: > 72.8 µM (inactive) | GI50 [6]: > 100 µM (inactive) | GI50 [8]: > 26.1 µM (inactive) | GI50 [7]: > 100 µM (inactive)

COc1cc2ncnc(Nc3cccc(Br)c3)c2cc1OC
GI50 [1]: 6.81 µM (inactive)

CC(=O)Oc1c2ccsc2c(OC(C)=O)c2ccsc12
GI50 [1]: 1.89 µM (inactive)

CC1(C)C2CC(c3ccncc3)ON2C(C)(C)N1O (centres undefined)
GI50 [1]: > 100 µM (inactive)

CCOC(=O)C1(C/C=C\CBr)CCCC1=O (centres undefined)
GI50 [1]: 30.5 µM (inactive)

CC1=[N+]([O-])c2ccccc2C(=O)C1=O
GI50 [2]: 44.8 µM (inactive) | GI50 [3]: > 100 µM (inactive) | GI50 [4]: > 100 µM (inactive) | GI50 [5]: > 100 µM (inactive) | GI50 [6]: > 100 µM (inactive) | GI50 [8]: > 100 µM (inactive) | GI50 [7]: > 100 µM (inactive)

CCCN(CCC)c1c([N+](=O)[O-])cc(C(=O)N(C)C)cc1[N+](=O)[O-]
GI50 [2]: 92 µM (inactive) | GI50 [3]: 30.2 µM (inactive) | GI50 [4]: 54.7 µM (inactive) | GI50 [5]: > 100 µM (inactive) | GI50 [6]: > 100 µM (inactive) | GI50 [7]: 33.4 µM (inactive)

BrC(=C(c1ccc(OC2CCCCO2)cc1)c1ccc(OC2CCCCO2)cc1)c1ccccc1 (centres undefined)
GI50 [1]: > 100 µM (inactive)

Brc1ccc2nc(-c3cccs3)nc(N3CCN(c4ccccc4)CC3)c2c1
GI50 [1]: > 100 µM (inactive)

N=C(N)N1CCC(N2CCOCC2)CC1
GI50 [1]: > 100 µM (inactive)

CCN(CC)C(=S)SC(C(=O)Nc1nnc(-c2ccc(Cl)cc2)o1)c1ccccc1 (centres undefined)
GI50 [1]: 6.53 µM (inactive)

CCOC(=O)c1nc2ccc(C(F)(F)F)cc2nc1Nc1ccc(Cl)c(Cl)c1
GI50 [1]: > 100 µM (inactive)

C/C(CN1C(=O)c2ccccc2C1=O)=N\NS(=O)(=O)c1ccc(C)cc1
GI50 [2]: > 100 µM (inactive) | GI50 [3]: > 100 µM (inactive) | GI50 [5]: > 100 µM (inactive) | GI50 [6]: > 100 µM (inactive) | GI50 [8]: > 100 µM (inactive)

O=c1cc(/C=C/c2ccc(O)c(O)c2)cc(/C=C/c2ccc(O)c(O)c2)o1
GI50 [1]: 8.79 µM (inactive)

COc1ccc(Nc2nc(N)c(C(=O)c3ccc(Cl)cc3)s2)cc1
GI50 [1]: 24 µM (inactive)

COC1C(O)CC(OC2C(C)OC(Oc3cc(O)c4c(O)c5c(cc4c3)C[C@@H]([C@H](OC)C(=O)[C@@H](O)[C@@H](C)O)[C@H](OC3CC(OC4CC(OC6CC(C)(O)C(O)C(C)O6)C(O)C(C)O4)C(O)C(C)O3)C5=O)CC2OC(C)=O)OC1C (some centres undefined)
GI50 [1]: 66.5 µM (inactive)

Cc1cc(S(=O)(=O)Nc2nc(N)nc(N(C)C)n2)c(SC(C(=O)O)c2ccccc2)cc1Cl (centres undefined)
GI50 [1]: > 10 µM (inactive)

COc1ccc(OC)c(-c2cn3c(n2)sc2ccccc23)c1
GI50 [1]: > 100 µM (inactive)

O/N=N/c1ccc2ccccc2n1
GI50 [1]: > 100 µM (inactive)

Nc1nc(N)c(CCCCc2ccccc2)c(N)n1
GI50 [2]: > 100 µM (inactive) | GI50 [3]: > 100 µM (inactive) | GI50 [4]: > 100 µM (inactive) | GI50 [5]: > 100 µM (inactive) | GI50 [1]: > 100 µM (inactive) | GI50 [7]: > 100 µM (inactive)

O=c1[nH]nc(Cc2ccc(Cl)cc2)n1/N=C\CC/C=N\n1c(Cc2ccc(Cl)cc2)n[nH]c1=O
GI50 [1]: 20 µM (inactive)

CN(C)CS/C(N)=N\C(O)C(Cl)(Cl)Cl (centres undefined)
GI50 [1]: > 100 µM (inactive)

COC(=O)C1(C(=O)OC)Cc2ccc(OC)cc2C2=C1C(=O)c1ccccc1C2=O
GI50 [1]: 1.51 µM (inactive)

C#CC1(O)CCC2C3CCc4cc(Oc5nc(F)nc(-c6c7ccccc7c7sc8ccccc8n67)n5)ccc4C3CC[C@@]21C (some centres undefined)
GI50 [2]: > 100 µM (inactive) | GI50 [3]: 75.5 µM (inactive) | GI50 [4]: > 100 µM (inactive) | GI50 [5]: > 100 µM (inactive)

Cc1c(C2=C(Br)C(=O)N(C)C2=O)c(=O)n(C)c(=O)n1C
GI50 [1]: 19.8 µM (inactive)
